Assay results published in US20130149269A1, “NOVEL MALODOR COUNTERACTANT” (priority 2011, published 2013).

What was measured:
[1] = Smoke malodor counteracting test, trained sensory panel (LMS rating); settings: for Malodor Intensity / % MOR: smoke malodor; for Malodor Intensity: mean LMS 0-100, 24 hours equilibration; for % MOR: relative to Malodor Alone
Source text: (§1) Establishment of Malodor Models: A number of malodorous chemicals have been identified, which are associated with different types of malodors. Commercial samples of these chemicals (commercially available at Sigma-Aldrich Inc.) were thus used in the present invention as malodorous model compounds to assess the effectiveness of methyl 3-methyl cyclohexane carboxylate in counteracting malodors.
(§2) A model of bathroom malodor was established using a solution of isovaleric acid (“IVA”) in diethyl phthalate (“DEP”) (10% by weight). A model of sweat malodor was established using a solution of 3-methyl-2-hexanoic acid in DEP (5% by weight). A model of mold/mildew malodors was established using a solution of 2-ethyl-1-hexanol in DEP (20% by weight). A model of smoke malodor was established by applying a solution of 3-acetyl pyridine in DEP (5% by weight) onto a piece of cloth.
(§3) Preparation of Test Samples: Methyl 3-methyl cyclohexane carboxylate was prepared at a series of concentrations, ranging from 0.1% to 5% in DEP, with corresponding vapor phase concentrations ranging from about 4 μg to about 0.2 mg per liter of air space.
(§4) A malodor material as established above (1 g) and a solution of methyl 3-methyl cyclohexane carboxylate in DEP (1 g) were pipetted into separate aluminum weighing dishes located at the bottom of a 32 oz. jar (1 L). For negative control samples (Malodor Alone), the malodor material (0.5 g) was pipetted into each of the two dishes located at the bottom of jar. Jars were then capped and the samples were allowed to equilibrate for 24 hours before testing.
(§5) Testing Procedure: Test samples were presented in a blind and pseudorandom order to a group of trained panelists (consisting of 12-17 females with a mean age of 40 years). The panelists were instructed to take the following steps: i) sniff malodor reference jars for familiarization prior to each testing session; ii) uncap a jar; iii) place their noses at a distance of about 3-4 inches above the opening; iv) take short sniffs for about 2-3 seconds; and v) enter a rating of overall intensity and malodor intensity on a handheld computer.
(§6) The overall and malodor intensity was rated using the Labeled Magnitude Scale (LMS) [Green, et al., Chemical Senses, 21(3), June 1996, 323-334]. Mean (“Malodor Intensity”) and standard error of the mean (“SE”, ±) were obtained, where 0 represents “No Sensation” and 100 represents “The Strongest Imaginable Malodor Sensation”. Percent malodor reduction (“% MOR”) represents the perceived reduction in mean malodor intensity of the sample containing the malodor in the presence of methyl 3-methyl cyclohexane carboxylate relative to the negative control (Malodor Alone).

[2] = Mold/mildew malodor counteracting test, trained sensory panel (LMS rating); settings: for Malodor Intensity / % MOR: mold/mildew malodor; for Malodor Intensity: mean LMS 0-100, 24 hours equilibration; for % MOR: relative to Malodor Alone
Source text: as §1, §2, §3, §4, §5, §6

[3] = Sweat malodor counteracting test, trained sensory panel (LMS rating); settings: for Malodor Intensity / % MOR: sweat malodor; for Malodor Intensity: mean LMS 0-100, 24 hours equilibration; for % MOR: relative to Malodor Alone
Source text: as §1, §2, §3, §4, §5, §6

[4] = Bathroom malodor counteracting test, trained sensory panel (LMS rating); settings: for Malodor Intensity / % MOR: bathroom malodor; for Malodor Intensity: mean LMS 0-100, 24 hours equilibration; for % MOR: relative to Malodor Alone
Source text: as §1, §2, §3, §4, §5, §6

[5] = overall conclusion, 0.1% to 5% in DEP

COC(=O)C1CCCC(C)C1 (stereo not drawn) [Methyl 3-Methyl Cyclohexane Carboxylate, methyl 3-methyl cyclohexane carboxylate]
counteracting the smoke malodor (result in words) [1, 5]: effective | Malodor Intensity ([1]; 0.1% in DEP, 4 μg/L): 10.02 | % MOR ([1]; 0.1% in DEP, 4 μg/L): 51.95% | Malodor Intensity ([1]; 0.5% in DEP, 21 μg/L): 7.23 | % MOR ([1]; 0.5% in DEP, 21 μg/L): 66.04% | Malodor Intensity ([1]; 1% in DEP, 42 μg/L): 4.78 | % MOR ([1]; 1% in DEP, 42 μg/L): 77.57% | Malodor Intensity ([1]; 5% in DEP, 208 μg/L): 4.23 | % MOR ([1]; 5% in DEP, 208 μg/L): 80.07% | Malodor Intensity ([2]; 0.1% in DEP, 4 μg/L): 9.88 | % MOR ([2]; 0.1% in DEP, 4 μg/L): 40.01% | Malodor Intensity ([2]; 0.5% in DEP, 21 μg/L): 5.44 | % MOR ([2]; 0.5% in DEP, 21 μg/L): 69.56% | Malodor Intensity ([2]; 1% in DEP, 42 μg/L): 4.44 | % MOR ([2]; 1% in DEP, 42 μg/L): 76.51% | Malodor Intensity ([2]; 5% in DEP, 208 μg/L): 3.34 | % MOR ([2]; 5% in DEP, 208 μg/L): 83.07% | counteracting the mold/mildew malodor (result in words) [2, 5]: effective | counteracting the sweat malodor (result in words) [3, 5]: effective | Malodor Intensity ([3]; 0.1% in DEP, 4 μg/L): 4.48 | % MOR ([3]; 0.1% in DEP, 4 μg/L): 77.92% | Malodor Intensity ([3]; 0.5% in DEP, 21 μg/L): 5.12 | % MOR ([3]; 0.5% in DEP, 21 μg/L): 72.63% | Malodor Intensity ([3]; 1% in DEP, 42 μg/L): 5.42 | % MOR ([3]; 1% in DEP, 42 μg/L): 73.14% | Malodor Intensity ([3]; 5% in DEP, 208 μg/L): 3.55 | % MOR ([3]; 5% in DEP, 208 μg/L): 81.47% | Malodor Intensity ([4]; 0.1% in DEP, 4 μg/L): 8.65 | % MOR ([4]; 0.1% in DEP, 4 μg/L): 56.93% | Malodor Intensity ([4]; 0.5% in DEP, 21 μg/L): 5.44 | % MOR ([4]; 0.5% in DEP, 21 μg/L): 66.47% | Malodor Intensity ([4]; 1% in DEP, 42 μg/L): 2.69 | % MOR ([4]; 1% in DEP, 42 μg/L): 86.11% | Malodor Intensity ([4]; 5% in DEP, 208 μg/L): 1.71 | % MOR ([4]; 5% in DEP, 208 μg/L): 90.86% | counteracting the bathroom malodor (result in words) [4, 5]: effective
